Assay results published in patent US10973912B2, “Treatment for myopathy” (Children's Medical Center Corporation, priority 2015, dated 2021).
Where “and” joins values, the source holds several entries; their conditions need not be identical. Equal entries are not always repeated. Structures can show the parent of a compound that is named as a salt.

Key:
[1] = test system: ryr1b homozygous mutant zebrafish; assay: Secondary screen of individual chemicals in ryr1b zebrafish (vitality: survival and touch-evoked escape behavior); format: in vivo, zebrafish (Danio rerio); set-up: key: vitality score, theoretical range 0–60; DMSO controls expected ~50; conditions: 2.0 μg/mL from 1 dpf, scored at 5 dpf; average of two replicates of 20 larvae from heterozygous ryr1b matings; score=(#Dead*0)+(#ryr1b*1)+(#Moderate*2)+(#Wild-type*3), max 60, expected 50 in DMSO controls
Procedure: Each scored compound represents an average of two replicates, consisting of 20 larvae from heterozygous ryr1b matings (n=40). Larvae obtained from wild-type AB matings served as positive controls. […] Significance was determined by pairwise comparisons between control and experimental pools using a Student's t-test. Vitality score=(#Dead*0)+(#ryr1b*1)+(#Moderate*2)+(#Wild-type*3). Standard deviations shown for positive and negative controls were calculated based on results from 5 and 21 independent experiments, respectively.
Primary screen. For the primary screen, twenty embryos (1 dpf) resulting from a mating of heterozygous ryr1b zebrafish were manually sorted into 48-well plates containing 250 μL embryo 1×E3 medium (5.0 mM NaCl, 0.17 mM KCl, 0.33 mM CaCl2*2H2O, 0.33 mM MgSO4*7H2O) and four pooled chemicals from the Prestwick2 chemical library. Each chemical pool was assayed in duplicate using embryos from two independent clutches, for a total of 24 distinct pools tested per plate (FIG. 1). The chemicals were dissolved to a final concentration of 2.0 μg/mL and 0.4% DMSO, which is similar to concentrations other groups have used in zebrafish studies^37,38. As a negative control, twenty embryos from each clutch were cultured without chemicals in vehicle only (0.4% DMSO) (FIG. 1). Larvae obtained from wild-type (Oregon AB) matings served as positive controls in separate plates. All plates containing embryos were incubated at 28.5° C. and maintained as initially treated for 5 days. Dead embryos were removed from wells when observed during the first 4 days of the study. On day 5, dead or “motion-dead” larvae were scored alongside living larvae.
At 5 dpf, pools were scored for their ability to improve the survival and touch-evoked escape behaviors of ryr1b homozygous mutants using the following numeric scoring system: 3=4-6 cm, fast (wild-type); 2=2-4 cm (moderate); 1=<2 cm, slow (ryr1b); 0=no movement (dead) (FIG. 2A). Survival, swimming, and combined endpoints of the primary screen were then examined for their ability to distinguish positive from negative controls. […] Taking into account both experimental replicates (n=40), hit pools contained at least 37 alive larvae on day 5 (i.e., 70-100% of the larvae assumed to be ryr1b mutants survived the duration of the study), and were selected for analysis in a secondary screen.
In the secondary screen, hit pools were separated and tested as 68 individual chemicals. Screening was performed precisely as described for the primary screen with few modifications. Embryos were raised in wells containing 750 μL 1×E3 medium, as opposed to 250 μL, although the final concentration of each compound was maintained at 2.0 μg/mL. […] Vitality scores, weighting survival and swimming ratios appropriately, were calculated as (#Dead*0)+(#ryr1b*1)+(#Moderate*2)+(#Wild-type*3). Theoretical maximum and minimum scores were 60 and 0, respectively, with an expected score of 50 in DMSO-treated controls. Secondary screen hits (P<0.05), considered “candidate” compounds, are currently being examined in dose-response and long-term studies.
The second tier of the chemical screen was performed two years following the primary screen, with a fully established ryr1b^+/− line. Healthier clutches tended to result in better survival of homozygous ryr1b mutants. Median mutant life spans more accurately adhered to the 7-15 day estimate previously published^30. Therefore, in the secondary screen, hit chemical pools were separated into individual compounds and each of 68 total compounds was examined for its ability to positively influence both ryr1b survival and motor function (referred to in combination as “vitality”). […] These included two anti-inflammatory agents (sulfasalazine and ketoprofen), two monoamine oxidase inhibitors (pargyline hydrochloride and tranylcypromine hydrochloride), and two ion channel modulators (metolazone and nimodipine).

[2] = test system: satellite cell expansion and muscle generation; conditions: in vitro and in mice, aging and dystrophic mouse models; cited from earlier work
[3] = test system: myofiber apoptosis and muscle strength; conditions: mouse, in vivo; cited from earlier work
IL-6 [4] = conditions: skeletal muscle; cited from earlier work
IL-6 [5] = conditions: in vitro; cited from earlier work
[6] = test system: ryr1b homozygous mutant zebrafish; format: in vivo, zebrafish (Danio rerio); conditions: for touch-evoked escape behaviors / mobility of ryr1b mutants: treated from 1 dpf, scored and genotyped at 5 dpf
Procedure: In two independent experiments, two pools of 20 larvae from heterozygous ryr1b matings were treated with DMSO or with one of three different concentrations of NIF (1.0-100.0 μg/mL) at 1 dpf and evaluated in terms of touch-evoked escape behaviors at 5 dpf (n=40). Following phenotypic scoring, all living embryos were genotyped using three-primer genomic PCR. Swimming scores for larvae genotype-confirmed as ryr1b homozygous mutants are shown as a percentage of the total number of living larvae in each dose category: 1=poor swimming; 2 or 3=moderate or wild-type swimming. NIF improved mobility of ryr1b mutants at a dose of 10 μg/mL. […] Phospho-Stat3 band intensities were normalized to β-Actin control bands and quantified in Image J (NIH).
FIGS. 12A-12C show a ketoprofen dose-response and proposed mechanistic link. […] FIG. 12B is a dose-response graph for ketoprofen (KETO). Two pools of 20 larvae from heterozygous ryr1b matings were treated with DMSO or four different concentrations of KETO (1.0-100.0 μg/mL) at 1 dpf and evaluated in terms of touch-evoked escape behaviors at 5 dpf (n=40). Following phenotypic scoring, all living embryos were genotyped using three-primer genomic PCR. Swimming scores for larvae genotype-confirmed as ryr1b homozygous mutants are shown as a percentage of the total number of living larvae in each dose category: 1=poor swimming, 2 or 3=moderate or wild-type swimming. […] Phosphorylated STATs form dimers, translocate to nuclei, and from there are associated with various transcriptional activities. Dubowitz, V. and Sewry, C. (2006) Muscle Biopsy: A Practical Approach. Elsevier-Health Sciences Division.
The relatively relaxed zebrafish was initially identified due to a spontaneous autosomal recessive mutation within the ryr1b gene^30. Specifically, ryr1b mutants carry a 4046 base pair (bp) DNA insertion in the intron between exons 48 and 49 that includes an additional 32 bp sequence found in mutant cDNA (FIG. 3)^30. Genotypes of individual embryos were examined using three-primer genomic PCR, with an expected wild-type band of 1,668 bp and a mutant band of 653 bp. Primer sequences were as follows: ryr1b #1 (forward): 5′-[…]-3′ (SEQ ID NO: 4); ryr1b #2 (reverse): 5′-[…]-3′ (SEQ ID NO: 5); and ryr1b #3 (reverse): 5′-[…]-3′ (SEQ ID NO: 6).
The primary and secondary screens only tested chemical pools and individual compounds at a single concentration (2.0 μg/mL). Although beneficial in a high-throughput context, this approach can result in false positives and false negatives. […] For analysis, pools of 20 larvae obtained from heterozygous ryr1b matings were treated in duplicate with DMSO or with one of three different concentrations of NIF (1.0-100.0 μg/mL) at 1 dpf and scored for touch-evoked escape behaviors at 5 dpf. All scored larvae were then genotyped using three-primer genomic PCR. […] Next, hit expansion was used to verify JAK-STAT as a potential molecular pathway involved in ryr1b mutant pathology. […] A higher effective dose for 5,15-DPP was consistent with the IC50 measurements reported for each compound^40,41.

ryr1b phenotype = conditions: zebrafish, in vivo; cited from earlier work

Clc1ccccc1CN1CCc2sccc2C1 [Ticlopidine hydrochloride]
Vitality Score [1]: 54.0

N#C/C(=C/c1ccc(O)c(O)c1)C(=O)NCc1ccccc1 [AG490]
satellite cell expansion and muscle generation [2]: promotes satellite cell expansion and rescues defects in muscle generation

C#CCN(C)Cc1ccccc1 [Pargyline hydrochloride]
myofiber apoptosis and muscle strength [3]: significantly decreases myofiber apoptosis and increases muscle strength
Vitality Score [1]: 58.0

CN(C)C/C=C(/c1ccc(Br)cc1)c1cccnc1 [Zimelidine dihydrochloride monohydrate]
Vitality Score [1]: 55.0

O=C(O)c1cc(/N=N/c2ccc(S(=O)(=O)Nc3ccccn3)cc2)ccc1O [Sulfasalazine]
IL-6 release (IL-6 [4]): inhibit IL-6 release in skeletal muscle
Vitality Score [1]: 57.0

Clc1ccc(COC(Cn2ccnc2)c2ccc(Cl)cc2Cl)c(Cl)c1 (stereo not drawn) [Miconazole]
Vitality Score [1]: 54.0

Cc1ccccc1N1C(=O)c2cc(S(N)(=O)=O)c(Cl)cc2NC1C (stereo not drawn) [Metolazone]
Vitality Score [1]: 55.5

COCCOC(=O)C1=C(C)NC(C)=C(C(=O)OC(C)C)C1c1cccc([N+](=O)[O-])c1 (stereo not drawn) [Nimodipine]
Vitality Score [1]: 52.0

CC(C(=O)O)c1cccc(C(=O)c2ccccc2)c1 (stereo not drawn) [Ketoprofen]
production of IL-6 (IL-6 [5]): inhibits the production of IL-6 in vitro
touch-evoked escape behaviors / mobility of ryr1b mutants [6]: confirmed a relationship between ketoprofen and improvements in ryr1b mobility
Vitality Score [1]: 52.0

C1=Cc2nc1cc1ccc([nH]1)c(-c1ccccc1)c1nc(cc3ccc([nH]3)c2-c2ccccc2)C=C1 [5,15-DPP, 5,15-diphenylporphyrin]
genotyped ryr1b larvae in treated pools (evidence of toxicity) ([6]; 5 dpf, 25% mutants expected): less than 25%
dose that improved mobility of ryr1b mutants / optimal activity ([6]; treated at 1 dpf, touch-evoked escape behaviors at 5 dpf, tested 1.0-100.0 μg/mL): 100.0 µg/mL and 100 µg/mL
touch-evoked escape behaviors / mobility of ryr1b mutants [6]: ryr1b mutants were among larvae that exhibited wild-type touch-evoked escape behaviors
satellite cell expansion and muscle generation [2]: promotes satellite cell expansion and rescues defects in muscle generation

CC(=O)N[C@@H](CS)C(=O)O [N-acetylcysteine]
effect on ryr1b phenotype (ryr1b phenotype): shown to ameliorate select aspects of the ryr1b phenotype

CC(=O)N(CC(O)CO)c1c(I)c(C(=O)NCC(O)CO)c(I)c(C(=O)NCC(O)CO)c1I (stereo not drawn) [Iohexol]
Vitality Score [1]: 53.5

N[C@@H]1C[C@H]1c1ccccc1 [Tranylcypromine hydrochloride]
Vitality Score [1]: 52.0

CCCCOc1cc(C(=O)OCCN(CC)CC)ccc1N [Benoxinate hydrochloride]
Vitality Score [1]: 52.5
